Assay results reported in US20230140972A1, “GLYCEROL GLUCOSIDE-BASED COMPOUND AND COMPOSITION COMPRISING SAME FOR ULTRAVIOLET LIGHT SHIELD OR ANTI-INFLAMMATION” (ATHENA CO., LTD., priority 2020, published 2023).

Experiments:
[1] = test system: NO production in LPS-treated RAW264.7 cells; test: Nitric oxide (NO) production inhibition, non-enzymatic method (Griess); type: cell-based; details: Mus musculus, LPS 1 μg/mL, read-out: NO production inhibition rate
Experimental: An NO assay was performed to evaluate the nitric oxide (NO) production inhibition ability of the glycerol glucoside-based compound sample (EPS-S).
Specifically, subcultured RAW264.7 cells were aliquoted in a 96-well plate at 1×10^5 cells/well, and cultured for 24 hours at 37° C. in an incubator containing 5% carbon dioxide, and then, a culture media was replaced with a serum-free media. Then, each sample was diluted by concentration, treated onto the cell with LPS (final 1 μg/mL), and after culturing for 24 hours, the cell culture medium and a Griess reagent were reacted, and an absorbance was then measured at 540 nm with a microplate reader. Dexamethasone was used as a positive control group. After the test was conducted once, each absorbance value was substituted into Equation 2 below to obtain the NO production inhibition rate (%), and it was expressed as the mean±standard deviation.

[2] = test system: TNF-α production in RAW264.7 cells; test: TNF-α production inhibition using ELISA assay; type: cell-based; details: Mus musculus, LPS 10 ng/mL
Experimental: A TNF-α production inhibition ability of the sample in RAW264.7 cells was evaluated using a TNF-α ELISA assay.
(§1) Specifically, subcultured RAW264.7 cells were aliquoted into a 6-well dish at 1.5×10^6 cells/well, and cultured for 24 hours at 37° C. in an incubator containing 5% carbon dioxide, and then a culture media was replaced with a serum-free media. Then, each sample was diluted by concentration and treated onto the cells with LPS (final 10 ng/mL). After culturing for 24 hours, the cell culture medium was recovered and the TNF-α ELISA assay was performed.
(§2) 50 μL of an assay diluent was put into each well, and 50 μL of each of a standard solution and a cell culture solution were added to each well and reacted at room temperature for 2 hours. Thereafter, the reaction solution was removed from each well, washed with a wash buffer, 100 μL of TNF-α conjugate was added, and after reacting at room temperature for 2 hours, the reaction solution was removed from each well and washing is performed with a wash buffer.
(§3) Thereafter, 100 μL of a substrate solution was added and a reaction under light blocking was carried out at room temperature, and then 100 μL of a stop solution was added, and an absorbance was measured at 450 and 570 nm. Dexamethasone was used as a positive control group. After the test was conducted once, a TNF-α synthesis amount was calculated by substituting the absorbance value into a TNF-α standard solution calibration curve, and then the TNF-α production inhibition rate (%) was calculated using Equation 3 below, and expressed as the mean±standard deviation of the experiment.

[3] = test system: IL-6 production in RAW264.7 cells; test: IL-6 production inhibition using ELISA assay; type: cell-based, mouse; details: LPS 10 ng/mL
Experimental: An IL-6 ELISA assay was used to evaluate an IL-6 production inhibition ability of the sample in RAW264.7 cells.
as §1, with “cells/well” for “cells/well,”, “an IL-6” for “the TNF-α”
as §2, with “IL-6” for “TNF-α”, “reaction” for “reacting”
as §3, with “Next,” for “Thereafter,”, “an IL-6 production” for “a TNF-α synthesis”, “IL-6” for “TNF-α”, “4” for “3”

[4] = test system: PGE2 production in RAW264.7 cells; test: PGE2 production inhibition using ELISA assay; type: cell-based, mouse; details: LPS 10 ng/mL
Experimental: A PGE2 production inhibition ability of the sample in RAW264.7 cells was evaluated using a PGE2 ELISA assay.
as §1, with “cells/well” for “cells/well,”, “a PGE2” for “the TNF-α”
100 μL of each of a standard solution and a cell culture solution were put into each well, and then 50 μL of PGE2 conjugate and 50 μL of PGE2 antibody were sequentially added and reacted at room temperature for 2 hours. Then, the reaction solution was removed from each well, washing is performed with a wash buffer, 200 μL of a substrate solution was then added, and reacted at room temperature for 45 minutes. Then, 50 μL of a stop solution was added and an absorbance was measured at 405 and 570 nm. Dexamethasone was used as a positive control group. After the test was conducted once, an amount of PGE2 production was calculated by substituting the absorbance value into a PGE2 standard solution calibration curve, and the PGE2 production inhibition rate (%) was calculated using Equation 5 below and expressed as the mean±standard deviation.

Compound: C[C@@H]1C[C@H]2[C@@H]3CCC4=CC(=O)C=C[C@]4(C)[C@@]3(F)[C@@H](O)C[C@]2(C)[C@@]1(O)C(=O)CO [Dexamethasone]
- inhibition at 10 µM ([1]; 24 h, 10 μM): 15.6%
- inhibition at 20 µM ([1]; 24 h, 20 μM): 18%
- inhibition at 40 µM ([1]; 24 h, 40 μM): 27.6%
- inhibition at 80 µM ([1]; 24 h, 80 μM): 33.8%
- inhibition at 1 µM ([2]; 24 h, 1 μM, read-out: TNF-α production inhibition ability): 13.8%
- inhibition at 5 µM ([2]; 24 h, 5 μM, read-out: TNF-α production inhibition ability): 34.7%
- inhibition at 10 µM ([2]; 24 h, 10 μM, read-out: TNF-α production inhibition ability): 46.5%
- inhibition at 20 µM ([2]; 24 h, 20 μM, read-out: TNF-α production inhibition ability): 52.1%
- inhibition at 50 µM ([2]; 24 h, 50 μM (text b137), read-out: TNF-α production inhibition rate): 65%
- inhibition at 80 µM ([2]; 24 h, 80 μM, read-out: TNF-α production inhibition ability): 65.05 ± 0.6%
- IL-6 production inhibition ability ([3]; 24 h, 10 Mm (10 μM)): 55.97%
- inhibition at 1 µM ([3]; Mus musculus, RAW264.7, 24 h, 1 μM, read-out: IL-6 production inhibition ability): 12.7%
- inhibition at 5 µM ([3]; Mus musculus, RAW264.7, 24 h, 5 μM, read-out: IL-6 production inhibition ability): 48.4%
- inhibition at 20 µM ([3]; Mus musculus, RAW264.7, 24 h, 20 μM, read-out: IL-6 production inhibition ability): 63.3%
- inhibition at 50 µM ([3]; Mus musculus, RAW264.7, 24 h, 50 μM (text b146), read-out: IL-6 production inhibition rate): 88.7%
- PGE2 production inhibitory ability ([4]; 24 h, 10 Mm (10 μM)): 83.55%
- inhibition at 1 µM ([4]; Mus musculus, RAW264.7, 24 h, 1 μM, read-out: PGE2 production inhibitory ability): 62.3%
- inhibition at 5 µM ([4]; Mus musculus, RAW264.7, 24 h, 5 μM, read-out: PGE2 production inhibitory ability): 81.4%
- inhibition at 20 µM ([4]; Mus musculus, RAW264.7, 24 h, 20 μM, read-out: PGE2 production inhibitory ability): 86.4%
- inhibition at 80 µM ([4]; Mus musculus, RAW264.7, 24 h, 80 μM, read-out: PGE2 production inhibitory ability): 96.4%

Compound: COCC(COC)OC1OC(CO)C(O)C(O)C1O (stereo not drawn) [EPS-S]
- inhibition at 1 ppm ([1]; 24 h, 1 ppm): -5.66%
- inhibition at 10 ppm ([1]; 24 h, 10 ppm): 6.1%
- inhibition at 100 ppm ([1]; 24 h, 100 ppm): 14.2%
- inhibition at 1000 ppm ([1]; 24 h, 1,000 ppm): 30.3%
- inhibition at 10 ppm ([2]; 24 h, 10 ppm, read-out: TNF-α production inhibition ability): 29.7%
- inhibition at 100 ppm ([2]; 24 h, 100 ppm, read-out: TNF-α production inhibition ability): 34.9%
- inhibition at 500 ppm ([2]; 24 h, 500 ppm, read-out: TNF-α production inhibition ability): 49.7%
- inhibition at 1000 ppm ([2]; 24 h, 1,000 ppm, read-out: TNF-α production inhibition ability): 77.6%
- inhibition at 10 ppm ([3]; Mus musculus, RAW264.7, 24 h, 10 ppm, read-out: IL-6 production inhibition ability): 10.1%
- inhibition at 100 ppm ([3]; Mus musculus, RAW264.7, 24 h, 100 ppm, read-out: IL-6 production inhibition ability): 23.8%
- inhibition at 500 ppm ([3]; Mus musculus, RAW264.7, 24 h, 500 ppm, read-out: IL-6 production inhibition ability): 36.3%
- inhibition at 1000 ppm ([3]; Mus musculus, RAW264.7, 24 h, 1,000 ppm, read-out: IL-6 production inhibition ability): 92.4%
- inhibition at 10 ppm ([4]; Mus musculus, RAW264.7, 24 h, 10 ppm, read-out: PGE2 production inhibitory ability): 28.3%
- inhibition at 100 ppm ([4]; Mus musculus, RAW264.7, 24 h, 100 ppm, read-out: PGE2 production inhibitory ability): 36.5%
- inhibition at 500 ppm ([4]; Mus musculus, RAW264.7, 24 h, 500 ppm, read-out: PGE2 production inhibitory ability): 47.2%
- inhibition at 1000 ppm ([4]; Mus musculus, RAW264.7, 24 h, 1,000 ppm, read-out: PGE2 production inhibitory ability): 94.1%
